Measured values from patent US20250215029A1 (Recludix Pharma, Inc., priority 2022, published 2025).
Like-named read-outs stand apart in the source and are kept apart here.

Columns and labels:
[1] = molecular target: T1, Recombinant STAT3 protein (STAT3 (G127-I722)) (Homo sapiens, UniProt P40763); assay: STAT3 Fluorescence Polarization (FP) Assay; assay type: binding; conditions: probe 5-FAM-GpYLPQTV-NH2 2 nM, 45-minute incubation
T1 construct: Recombinant STAT3 protein (STAT3 (G127-I722))
Summary of the method: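 Read-out is fluorescence polarization (mP) after 45 min at room temperature, with IC50 fitted by nonlinear regression against log compound concentration. Mixture: 25 nM STAT3 (G127-I722), 2 nM 5-FAM-GpYLPQTV-NH2 phosphopeptide, 10 mM HEPES pH 7.4 buffer, 1% DMSO.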

[2] = molecular target: T2, Recombinant STAT6 protein (STAT6 (W123-T658)) (Homo sapiens, UniProt P42226); assay: STAT6 Fluorescence Polarization (FP) Assay; assay type: binding; conditions: 45-minute incubation
T2 construct: Recombinant STAT6 protein (STAT6 (W123-T658))
T2 sequence (P42226 123-658): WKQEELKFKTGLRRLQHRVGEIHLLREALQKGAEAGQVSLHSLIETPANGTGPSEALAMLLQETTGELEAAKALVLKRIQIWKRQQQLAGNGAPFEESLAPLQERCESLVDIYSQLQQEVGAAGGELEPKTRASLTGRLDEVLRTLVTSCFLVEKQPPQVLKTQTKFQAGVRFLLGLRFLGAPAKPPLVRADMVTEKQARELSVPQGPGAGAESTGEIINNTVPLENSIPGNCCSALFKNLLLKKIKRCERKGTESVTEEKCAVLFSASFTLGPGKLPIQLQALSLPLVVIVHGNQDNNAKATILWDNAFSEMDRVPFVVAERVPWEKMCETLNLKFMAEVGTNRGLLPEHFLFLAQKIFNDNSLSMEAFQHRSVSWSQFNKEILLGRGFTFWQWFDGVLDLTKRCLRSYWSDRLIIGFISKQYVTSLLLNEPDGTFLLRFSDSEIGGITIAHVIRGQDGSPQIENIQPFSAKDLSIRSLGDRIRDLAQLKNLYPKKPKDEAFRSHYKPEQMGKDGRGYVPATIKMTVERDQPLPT
Summary of the method: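 Competitive FP binding: recombinant STAT6 (W123-T658) at 250 nM, labeled phosphotyrosine peptide at 2 nM, compounds at 1% DMSO, 45 min at RT before reading. IC50 values were obtained from nonlinear regression of mP versus log concentration.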

[3] = STAT3 (G127-I722) 25 nM, read-out: STAT3 (FP assay IC50 class)
[4] = STAT6 (W123-T658) 250 nM, probe 5-FAM-Ap[…]-NH2 2 nM, read-out: STAT6 (FP assay IC50 class)
[5] = STAT6 (W123-T658) 250 nM, probe 5-FAM-ApYKPFQDLI-NH2 2 nM, read-out: STAT6 (FP assay IC50 class)

T1 sequence (P40763 127-722): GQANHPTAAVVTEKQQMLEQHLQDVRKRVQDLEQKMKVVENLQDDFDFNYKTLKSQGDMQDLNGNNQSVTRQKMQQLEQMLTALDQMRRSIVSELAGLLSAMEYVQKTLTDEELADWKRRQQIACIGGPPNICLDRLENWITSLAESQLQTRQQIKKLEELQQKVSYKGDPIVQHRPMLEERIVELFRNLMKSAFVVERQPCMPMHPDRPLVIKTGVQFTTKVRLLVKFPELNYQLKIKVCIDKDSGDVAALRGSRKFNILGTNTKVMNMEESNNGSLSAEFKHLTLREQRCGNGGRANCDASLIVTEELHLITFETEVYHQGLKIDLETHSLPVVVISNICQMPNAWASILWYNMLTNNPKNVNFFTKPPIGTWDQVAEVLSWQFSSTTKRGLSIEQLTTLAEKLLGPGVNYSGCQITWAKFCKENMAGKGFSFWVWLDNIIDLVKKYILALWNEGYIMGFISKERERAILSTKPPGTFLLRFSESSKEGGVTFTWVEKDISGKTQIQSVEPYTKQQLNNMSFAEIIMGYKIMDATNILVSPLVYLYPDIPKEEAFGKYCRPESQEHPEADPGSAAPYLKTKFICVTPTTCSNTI

SMILES	IC50 [1, 3]	IC50 [2, 4]	IC50 [2, 5]	IC50 ([1]; STAT3 25 nM, read-out: STAT3 (FP assay IC50))	IC50 ([2]; STAT6 250 nM, probe 5-FAM-Ap[…]-NH2 2 nM, read-out: STAT6 (FP assay IC50))
N#C[C@@H]1CN(C(=O)[C@@H]2CC[C@@H]3CCCC[C@H](NC(=O)c4cc5cc([C@H](F)P(=O)(O)O)ccc5s4)C(=O)N32)C[C@H]1c1cc[nH]c(=O)c1 (single isomer, unassigned) [Compound 872]	100 to 1000 nM	≤ 300 nM			
N#C[C@H]1CN(C(=O)[C@@H]2CC[C@@H]3CCCC[C@H](NC(=O)c4cc5cc(C(F)(F)P(=O)(O)O)ccc5s4)C(=O)N32)C[C@@H]1c1cc[nH]c(=O)c1 (single isomer, unassigned) [Compound 875]	100 to 1000 nM	≤ 300 nM			
Cc1cc(C2CN(C(=O)[C@@H]3CC[C@@H]4CCCC[C@H](NC(=O)c5cc6cc(C(F)(F)P(=O)(O)O)ccc6s5)C(=O)N43)CC2C#N)cc(=O)[nH]1 (single isomer, unassigned) [Compound 876]	1000 to 10000 nM	300 to 3000 nM			
N#C[C@H]1CN(C(=O)[C@@H]2CC[C@@H]3CCCC[C@H](NC(=O)c4cc5cc(CP(=O)(O)O)ccc5s4)C(=O)N32)C[C@@H]1c1cc[nH]c(=O)c1 (single isomer, unassigned) [Compound 878]	1000 to 10000 nM	300 to 3000 nM			
O=C(N[C@H]1CCCC[C@H]2CC[C@@H](C(=O)N3C[C@@H](c4ccccc4)CC34CC4)N2C1=O)c1cc2cc(C(F)(F)P(=O)(O)O)ccc2s1 (single isomer, unassigned) [Compound 889]	1000 to 10000 nM	≤ 300 nM			
O=C(N[C@H]1CCCC[C@H]2CC[C@@H](C(=O)N3C[C@@H](c4ccccc4)CC34CC4)N2C1=O)c1cc2cc(C(F)(F)P(=O)(O)O)ccc2s1 (single isomer, unassigned) [Compound 890]	1000 to 10000 nM		≤ 300 nM		
N#C[C@@H]1[C@@H](c2ccccc2)CN(C(=O)[C@@H]2CC[C@@H]3CCCC[C@H](NC(=O)c4ccc5ccc(C(F)P(=O)(O)O)cc5c4)C(=O)N32)C12CC2 (single isomer, unassigned) [Compound 894]	1000 to 10000 nM	≤ 300 nM			
CC(c1ccc2ccc(C(=O)N[C@H]3CCCC[C@H]4CC[C@@H](C(=O)N5C[C@@H](c6ccccc6)CC56CC6)N4C3=O)cc2c1)P(=O)(O)O (single isomer, unassigned) [Compound 897]	1000 to 10000 nM	3000 to 30000 nM			
O=C(N[C@H]1CCCC[C@H]2CC[C@@H](C(=O)N3C[C@@H](c4cccnc4)CC34CC4)N2C1=O)c1cc2cc([C@H](F)P(=O)(O)O)ccc2s1 (single isomer, unassigned) [Compound 908]	1000 to 10000 nM	≤ 300 nM			
O=C(N[C@H]1CCCC[C@H]2CC[C@@H](C(=O)N3C[C@H](c4cccnc4)CC34CC4)N2C1=O)c1cc2cc([C@@H](F)P(=O)(O)O)ccc2s1 (single isomer, unassigned) [Compound 909]	1000 to 10000 nM	≤ 300 nM			
O=C(N[C@H]1CCCC[C@H]2CC[C@@H](C(=O)N3C[C@H](c4cccnc4)CC34CC4)N2C1=O)c1cc2cc([C@H](F)P(=O)(O)O)ccc2s1 (single isomer, unassigned) [Compound 911]	1000 to 10000 nM	≤ 300 nM			
N#C[C@H]1[C@H](c2ccccc2)CN(C(=O)[C@@H]2CC[C@@H]3CCC[C@H](NC(=O)c4cc5cc([C@H](F)P(=O)(O)O)ccc5s4)C(=O)N32)C12CC2 (single isomer, unassigned) [Compound 916]	1000 to 10000 nM	≤ 300 nM			
O=C(N[C@H]1CCC[C@H]2CC[C@@H](C(=O)N3C[C@@H](c4cccnc4)CC34CC4)N2C1=O)c1cc2cc([C@@H](F)P(=O)(O)O)ccc2s1 (single isomer, unassigned) [Compound 917]	1000 to 10000 nM	≤ 300 nM			
N#C[C@@H]1[C@@H](c2ccccc2)CN(C(=O)[C@@H]2CC[C@@H]3CCC[C@H](NC(=O)c4cc5cc([C@H](F)P(=O)(O)O)ccc5s4)C(=O)N32)C12CC2 (single isomer, unassigned) [Compound 919]	1000 to 10000 nM	≤ 300 nM			
N#C[C@@H]1[C@@H](c2ccccc2)CN(C(=O)[C@@H]2CC[C@@H]3CCC[C@H](NC(=O)c4cc5cc([C@@H](F)P(=O)(O)O)ccc5s4)C(=O)N32)C12CC2 (single isomer, unassigned) [Compound 920]	1000 to 10000 nM	≤ 300 nM			
N#C[C@@H]1[C@@H](c2ccccc2)CN(C(=O)[C@@H]2CC[C@@H]3CCCC[C@H](NC(=O)c4cc5cc([C@@H](F)P(=O)(O)O)ccc5s4)C(=O)N32)C12CC2 (single isomer, unassigned) [Compound 923]	1000 to 10000 nM	≤ 300 nM			
N#C[C@H]1[C@H](c2ccccc2)CN(C(=O)[C@@H]2CC[C@@H]3CCCC[C@H](NC(=O)c4cc5cc([C@H](F)P(=O)(O)O)ccc5s4)C(=O)N32)C12CC2 (single isomer, unassigned) [Compound 924]	1000 to 10000 nM	≤ 300 nM			
N#C[C@@H]1[C@@H](c2ccccc2)CN(C(=O)[C@@H]2CC[C@@H]3C[C@@H](N4CCC4)CC[C@H](NC(=O)c4cc5cc([C@H](F)P(=O)(O)O)ccc5s4)C(=O)N32)C12CC2 (single isomer, unassigned) [Compound 934]	1000 to 10000 nM	≤ 300 nM			
N#C[C@@H]1[C@@H](c2ccccc2)CN(C(=O)[C@@H]2CC[C@@H]3C[C@@H](N4CCC4)CC[C@H](NC(=O)c4cc5cc([C@@H](F)P(=O)(O)O)ccc5s4)C(=O)N32)C12CC2 (single isomer, unassigned) [Compound 935]	1000 to 10000 nM	≤ 300 nM			
N#C[C@H]1[C@H](c2ccccc2)CN(C(=O)[C@@H]2CC[C@@H]3C[C@@H](N4CCC4)CC[C@H](NC(=O)c4cc5cc([C@H](F)P(=O)(O)O)ccc5s4)C(=O)N32)C12CC2 (single isomer, unassigned) [Compound 936]	1000 to 10000 nM	≤ 300 nM			
N#C[C@H]1[C@H](c2ccccc2)CN(C(=O)[C@@H]2CC[C@@H]3C[C@@H](N4CCC4)CC[C@H](NC(=O)c4cc5cc([C@@H](F)P(=O)(O)O)ccc5s4)C(=O)N32)C12CC2 (single isomer, unassigned) [Compound 937]	1000 to 10000 nM	≤ 300 nM			
C[C@H]1C[C@H]2CC[C@@H](C(=O)N3CC[C@@H](c4ccccc4)C3)N2C(=O)[C@@H](NC(=O)c2cc3cc(C(F)(F)P(=O)(O)O)ccc3s2)CC1O (stereo in doubt) [Compound 101, (difluoro(2-(((3S,6S,8S,9S, 10aR)-8-hydroxy-9-methyl-5-oxo-3-((S)-3-phenylpyrrolidine-1-carbonyl)decahydropyrrolo [1,2-a]azocin-6-yl)carbamoyl)benzo[b]thiophen-5-yl)methyl) phosphonic acid]				100 to 1000 nM	300 to 3000 nM
N#CC1C(c2ccccc2)CN(C(=O)[C@@H]2CC[C@@H]3CCC[C@H](NC(=O)c4cc5cc(C(F)(F)P(=O)(O)O)ccc5s4)C(=O)N32)C12CC2 (stereo in doubt) [Compound 865, ((2-(((3S,6S,9aS)-3-((6S,7R)-7-cyano-6-phenyl-4-azaspiro[2.4]heptane-4-carbonyl)-5-oxooctahydro-1H-pyrrolo[1,2-a]azepin-6-yl)carbamoyl)benzo [b]thiophen-5-yl)difluoromethyl) phosphonic acid]	1000 to 10000 nM	≤ 300 nM			
O=C(N[C@H]1CCCC[C@H]2CC[C@@H](C(=O)N3CC(c4cccnc4)CC34CC4)N2C1=O)c1cc2cc([C@@H](F)P(=O)(O)O)ccc2s1 (stereo in doubt) [Compound 910, ((S)-fluoro(2-(((3S,6S,10aS)-5-oxo-3-((R)-6-(pyridin-3-yl)-4-azaspiro[2.4]heptane-4-carbonyl)decahydropyrrolo[1,2-a]azocin-6-yl)carbamoyl)benzo [b]thiophen-5-yl)methyl) phosphonic acid]	1000 to 10000 nM		≤ 300 nM		
N#CC1C(c2ccccc2)CN(C(=O)[C@@H]2CC[C@@H]3CCC[C@H](NC(=O)c4cc5cc([C@@H](F)P(=O)(O)O)ccc5s4)C(=O)N32)C12CC2 (stereo in doubt) [Compound 921, ((S)-(2-(((3S,6S,9aS)-3-((6R,7S)-7-cyano-6-phenyl-4-azaspiro[2.4]heptane-4-carbonyl)-5-oxooctahydro-1H-pyrrolo[1,2-a]azepin-6-yl)carbamoyl)benzo [b]thiophen-5-yl)fluoromethyl) phosphonic acid]	1000 to 10000 nM		≤ 300 nM		
